Publication PMC10035387 (Cancer Research Communications, 2022)
Where two headings read alike, the source gives them in different places.

Tests used:
Ki67 = Ki67 IHC in serial paired skin biopsy specimens; assay type: in vivo, human; conditions: skin biopsies
[1] = system: PDAC cell lines that retain RB1 expression; design: method as in PMID 29080858; conditions: cited from earlier work
[2] = human, in vivo
Text: (§1) Other outcomes included safety, pharmacokinetics, pharmacodynamics, tissue/blood biomarkers, objective tumor response, progression-free survival (PFS), and OS assessments.

phospho-Rb (pRb) = assay: pRb IHC in serial paired skin biopsy specimens; assay type: in vivo, human; conditions: skin biopsies
[3] = Phase Ib study: adverse events, dose-limiting toxicities, MTD
Method: The criteria for dose escalation were based on a modified toxicity probability method ([20]), using a statistical probability algorithm calculated with all patients treated at the same dose level. […] The study was conducted in accordance with legal and regulatory requirements and the Declaration of Helsinki. Prior to participant enrollment, the study was approved by the Institutional Review Board/Ethics Committee at each site at which it was conducted. Patients provided written informed consent before any study procedures were performed.

[4] = cited from earlier work
[5] = system: metastatic pancreatic cancer; conditions: cited from earlier work; for Median OS: P < 0.001; for Efficacy in randomized clinical trials: patients with PDAC
[6] = Phase Ib study: plasma pharmacokinetics; conditions: steady state, overall population
Text: as §1

Panc265 model = conditions: cited from earlier work
[7] = system: cytochrome P450 (CYP) 2C8 and CYP3A4; design: method as in earlier work; conditions: cited from earlier work
[8] = after 2 weeks of palbociclib treatment, first-line MTD group
[9] = after a further 2 weeks of palbociclib treatment
[10] = after the 1-week palbociclib break, before cycle 2
[11] = PALOMA-1, patients with breast cancer
[12] = PALOMA-2, patients with breast cancer

## CC(=O)c1c(C)c2cnc(Nc3ccc(N4CCNCC4)cn3)nc2n(C2CCCC2)c1=O [palbociclib]
Ki67; [8]
  Ki67 level: decreased
Ki67; [9]
  Ki67 level: decreased again to below baseline
Ki67; [10]
  Ki67 level: rebounded to baseline or higher levels
[1]
  Effect on PDAC cell lines: induces cell-cycle arrest and apoptosis
[2]
  CL/F, geometric mean: 79.95 L/h
  CL/F, median: 74.10 L/h
  Ctrough, geometric mean: 34.89 ng/mL
  Ctrough, median: 34.60 ng/mL
  tmax, median: 4.17 h
phospho-Rb (pRb); [8]
  pRb level: decreased
phospho-Rb (pRb); [9]
  pRb level: decreased again to below baseline
phospho-Rb (pRb); [10]
  pRb level: rebounded to baseline or higher levels
[3]; all patients
  Permanent discontinuation of palbociclib due to bacterial gastritis: 1.3%
  Permanent discontinuation of palbociclib due to infection: 1.3%
  Permanent discontinuation of palbociclib due to sepsis: 1.3%
[3]; for 21 of every 28 days, with nab-paclitaxel
  MTD of palbociclib: 100 mg
[4]; [11]
  AUCτ: 1,933 ng·hour/mL
  Cmax: 108 ng/mL
[4]; [12]
  AUCτ: 1,992 ng·hour/mL
  Cmax: 110 ng/mL
[5]; CDKN2A-mutated advanced pancreatic cancer
  Clinical activity: did not have meaningful clinical activity
[6]
  Dose-normalized geometric mean AUCτ: 1,569 ng·hour/mL
  Dose-normalized geometric mean Cmax: 90.44 ng/mL

## CCc1cnn2c(NCc3ccc[n+]([O-])c3)cc(N3CCCC[C@H]3CCO)nc12 [dinaciclib]
Panc265 model
  Sensitivity of Panc265 model: sensitive

## CC(=O)O[C@H]1C(=O)[C@@]2(C)[C@H]([C@H](OC(=O)c3ccccc3)[C@]3(O)C[C@H](OC(=O)[C@H](O)[C@@H](NC(=O)c4ccccc4)c4ccccc4)C(C)=C1C3(C)C)[C@]1(OC(C)=O)CO[C@@H]1C[C@@H]2O [Paclitaxel]
[7]
  Metabolizing enzymes: metabolized primarily by cytochrome P450 (CYP) 2C8 and CYP3A4

## Nc1ccn([C@@H]2O[C@H](CO)[C@@H](O)C2(F)F)c(=O)n1 [gemcitabine]
[5]; FOLFIRINOX versus gemcitabine
  Median OS: 6.8 months
[5]; GA versus gemcitabine alone, metastatic pancreatic cancer
  Median OS: 6.7 months

## FOLFIRINOX
[5]; FOLFIRINOX versus gemcitabine
  Median OS: 11.1 months

B1: PEGPH20: agent not efficacious in randomized clinical trials in PDAC (protein, UniProt P38567 36-490, looked up)
Hyaluronidase PH-20: LNFRAPPVIPNVPFLWAWNAPSEFCLGKFDEPLDMSLFSFIGSPRINATGQGVTIFYVDRLGYYPYIDSITGVTVNGGIPQKISLQDHLDKAKKDITFYMPVDNLGMAVIDWEEWRPTWARNWKPKDVYKNRSIELVQQQNVQLSLTEATEKAKQEFEKAGKDFLVETIKLGKLLRPNHLWGYYLFPDCYNHHYKKPGYNGSCFNVEIKRNDDLSWLWNESTALYPSIYLNTQQSPVAATLYVRNRVREAIRVSKIPDAKSPLPVFAYTRIVFTDQVLKFLSQDELVYTFGETVALGASGIVIWGTLSIMRSMKSCLLLDNYMETILNPYIINVTLAAKMCSQVLCQEQGVCIRKNWNSSDYLHLNPDNFAIQLEKGGKFTVRGKPTLEDLEQFSEKFYCSCYSTLSCKEKADVKDTDAVDVCIADGVCIDAFLKPPMETEEPQIFYNASPSTLS
modifications: PEGylated; pegvorhyaluronidase alfa
[5]
  Efficacy in randomized clinical trials: not efficacious

B2: pegilodecakin: agent not efficacious in randomized clinical trials in PDAC (protein, UniProt P22301 19-178, looked up)
Interleukin-10: SPGQGTQSENSCTHFPGNLPNMLRDLRDAFSRVKTFFQMKDQLDNLLLKESLLEDFKGYLGCQALSEMIQFYLEEVMPQAENQDPDIKAHVNSLGENLKTLRLRLRRCHRFLPCENKSKAVEQVKNAFNKLQEKGIYKAMSEFDIFINYIEAYMTMKIRN
modifications: PEGylated
[5]
  Efficacy in randomized clinical trials: not efficacious
